Results reported in patent US10988456B2, “O-aminoheteroaryl alkynyl-containing compound, preparation method therefor, and use thereof” (SHANGHAI INSTITUTE OF MATERIA MEDICA, CHINESE ACADEMY OF …, priority 2017, dated 2021).

Legend:
[1] = system: human gastric cancer SNU-16 xenografts; assay: Growth of subcutaneous xenografts of human gastric cancer SNU-16 in nude mice (comparative compounds study); conditions: for relative tumor proliferation rate T/C: day 21; for Weight (g, mean ± SD): SNU-16 tumor-bearing mice
Method: (§1) The tumor tissue in the vigorous growth period was cut into 1.5 mm^3, and inoculated subcutaneously in the right axilla of nude mice under aseptic conditions. The diameter of the xenograft in nude mice was measured with a vernier caliper. The animals were randomly divided into groups when the average tumor volume was grown to about 190 mm^3. […] The diameter of the xenograft was measured twice a week during the entire experiment, and the body weight of the mice was weighed. The tumor volume (TV) was calculated as: TV=½×a×b^2, where a and b represented length and width, respectively. The relative tumor volume (RTV) was calculated based on the measured results, and the formula was: RTV=Vt/V0, wherein V0 represented the tumor volume obtained when the mice was divided and administered (i.e., d0), and Vt represented the tumor volume at each measurement. The anti-tumor activity evaluation index was the relative tumor proliferation rate T/C (%), and the calculation formula was as follows: T/C (%)=(TRTV/CRTV)×100%, wherein TRTV was TRV in treatment group; and CRTV was RTV in negative control group.

[2] = system: human gastric cancer SNU-16 xenografts; conditions: mouse, in vivo
Method: as §1

CN1CCN(Cc2ccc(NC(=O)c3ccc(Cl)c(C#Cc4cccnc4)c3)cc2C(F)(F)F)CC1 [HuFGFR1-117]
Relative tumor volume RTV (mean ± SD) ([1]; SNU-16, 20 mg/kg orally once a day, d0): 1.00 ± 0.00 | Relative tumor volume RTV (mean ± SD) ([1]; SNU-16, 20 mg/kg orally once a day, d3): 1.51 ± 0.37 | Relative tumor volume RTV (mean ± SD) ([1]; SNU-16, 20 mg/kg orally once a day, d7): 1.75 ± 0.47 | Relative tumor volume RTV (mean ± SD) ([1]; SNU-16, 20 mg/kg orally once a day, d10): 1.49 ± 0.14 | Relative tumor volume RTV (mean ± SD) ([1]; SNU-16, 20 mg/kg orally once a day, d14): 2.06 ± 0.38 | Relative tumor volume RTV (mean ± SD) ([1]; SNU-16, 20 mg/kg orally once a day, d17): 2.55 ± 0.55 | Relative tumor volume RTV (mean ± SD) ([1]; SNU-16, 20 mg/kg orally once a day, d21): 2.78 ± 0.58 | relative tumor proliferation rate T/C ([1]; SNU-16, 20 mg/kg orally once a day): 47.88% | animal deaths ([1]; SNU-16, 100 mg/kg group): one mouse died on the 9th and 10th day respectively | Relative tumor volume RTV (mean ± SD) ([1]; SNU-16, 100 mg/kg orally once a day (administration interrupted), d0): 1.00 ± 0.00 | Relative tumor volume RTV (mean ± SD) ([1]; SNU-16, 100 mg/kg orally once a day (administration interrupted), d3): 1.53 ± 0.39 | Relative tumor volume RTV (mean ± SD) ([1]; SNU-16, 100 mg/kg orally once a day (administration interrupted), d7): 0.80 ± 0.18 | Relative tumor volume RTV (mean ± SD) ([1]; SNU-16, 100 mg/kg orally once a day (administration interrupted), d10): 0.49 ± 0.08 | Relative tumor volume RTV (mean ± SD) ([1]; SNU-16, 100 mg/kg orally once a day (administration interrupted), d14): 0.51 ± 0.19 | Relative tumor volume RTV (mean ± SD) ([1]; SNU-16, 100 mg/kg orally once a day (administration interrupted), d17): 0.75 ± 0.22 | Relative tumor volume RTV (mean ± SD) ([1]; SNU-16, 100 mg/kg orally once a day (administration interrupted), d21): 0.83 ± 0.31 | relative tumor proliferation rate T/C ([1]; SNU-16, 100 mg/kg orally, administration interrupted): 14.38% | weight of the tumor-bearing mice (in words) ([1]; SNU-16, HuFGFR1-113 at 20 mg/kg, HuFGFR1-117 dose not stated): significantly decreased | Weight (g, mean ± SD) ([1]; 20 mg/kg orally once a day, d0): 22.5 ± 1.9 g | Weight (g, mean ± SD) ([1]; 20 mg/kg orally once a day, d3): 23.6 ± 2.1 g | Weight (g, mean ± SD) ([1]; 20 mg/kg orally once a day, d7): 22.7 ± 2.0 g | Weight (g, mean ± SD) ([1]; 20 mg/kg orally once a day, d10): 22.7 ± 2.3 g | Weight (g, mean ± SD) ([1]; 20 mg/kg orally once a day, d14): 23.6 ± 2.4 g | Weight (g, mean ± SD) ([1]; 20 mg/kg orally once a day, d17): 24.2 ± 2.5 g | Weight (g, mean ± SD) ([1]; 20 mg/kg orally once a day, d21): 24.7 ± 2.3 g | Weight (g, mean ± SD) ([1]; 100 mg/kg orally once a day (administration interrupted), d0): 23.6 ± 0.7 g | Weight (g, mean ± SD) ([1]; 100 mg/kg orally once a day (administration interrupted), d3): 24.4 ± 1.8 g | Weight (g, mean ± SD) ([1]; 100 mg/kg orally once a day (administration interrupted), d7): 21.1 ± 1.9 g | Weight (g, mean ± SD) ([1]; 100 mg/kg orally once a day (administration interrupted), d10): 17.6 ± 1.8 g | Weight (g, mean ± SD) ([1]; 100 mg/kg orally once a day (administration interrupted), d14): 19.7 ± 2.0 g | Weight (g, mean ± SD) ([1]; 100 mg/kg orally once a day (administration interrupted), d17): 22.6 ± 1.5 g | Weight (g, mean ± SD) ([1]; 100 mg/kg orally once a day (administration interrupted), d21): 23.0 ± 2.4 g | toxicity / condition of the mice (in words) [2]: dry skin, molting, and poor condition
